From US5449684A (priority 1993, dated 1995) come the findings set out here.

Molecules are shown by their SMILES. Values after ≈ are worked out from the molar mass of the structure shown.

Holding throughout (format): cell-based
The subject of experiment [1] is mouse leukemia P-388. Kind of experiment: in vitro antitumour activity in cell cultures of mouse leukemia P-388. As to conditions: P388, P-388 cell culture. How it is done:
(§1) The antitumour activities of Mycaperoxide A and Mycaperoxide B have been determined "in vitro" in cell cultures of mouse leukemia P-388, human lung carcinoma A-549 and human colon carcinoma HT-29. The procedure was carried out using the method described by Raymond J. Bergeron et al. Biochem Bioph. Res. Comm. 1984, 121(3), 848-854 and by Alan C Shroeder et al. J. Med. Chem. 1981, 24 1078-1083.

The test system of experiment [2] is human colon carcinoma HT-29. As to the kind of experiment: in vitro antitumour activity in cell cultures of human colon carcinoma HT-29. As to conditions: HT-29 cell culture. As to the method:
as §1

The subject of experiment [3] is human lung carcinoma A-549. As to the kind of experiment: in vitro antitumour activity in cell cultures of human lung carcinoma A-549. As to conditions: A549, A-549 cell culture. How it is done:
as §1

Experiment [4] relates to VSV (Vesicular stomatitis virus). As to the kind of experiment: microbe, parasite or virus in culture. As to conditions: read-out: IC50 VSV.

As for `CC(C(=O)O)C1CCC(C)(CCC2(C)C(C)CCC3C(C)(C)CCCC32O)OO1` (centres unmarked) [Mycaperoxide A, mycaperoxide A], the IC50 – broadly, the concentration that inhibits the measured activity by half – stood at 0.5 µg/mL (≈ 1.22 µM) in experiment [1], 0.5 µg/mL (≈ 1.22 µM) in experiment [2], 0.5 µg/mL (≈ 1.22 µM) in experiment [3] and 2 µg/mL (≈ 4.87 µM) in experiment [4].

Regarding `CC(C(=O)O)C1CCC(C)(CCC2(O)C(C)CCC3C(C)(C)CCCC32C)OO1` (centres unmarked) [Mycaperoxide B, mycaperoxide B], the IC50 in experiment [1] was 1 µg/mL (≈ 2.44 µM); in experiment [2] it was 1 µg/mL (≈ 2.44 µM); in experiment [3], 1 µg/mL (≈ 2.44 µM); in experiment [4] it was 4 µg/mL (≈ 9.74 µM).
